EP4467141A1, “PYRAZOLO-QUINOLINES AS SELECTIVE INHIBITORS OF GENOTOXIC STRESS-INDUCED IKK/NF- KB PATHWAYS FOR CANCER THERAPY” (Max-Delbrück-Centrum für Molekulare Medizin in der …, priority 2023, dated 2024)

Legend:
Assay in all cases: Kinase panel study
Assay type in all cases: biochemical
Details in all cases: read-out: Percentage of inhibition; for inhibition at 1 µM: 1000nM; for inhibition at 10 µM: 10000nM
TBK1 = biological target: T1, TBK1 (Homo sapiens, UniProt Q9UHD2)
T1 construct: purchased Thermo Fisher Scientific
T1 sequence (Q9UHD2 1-729): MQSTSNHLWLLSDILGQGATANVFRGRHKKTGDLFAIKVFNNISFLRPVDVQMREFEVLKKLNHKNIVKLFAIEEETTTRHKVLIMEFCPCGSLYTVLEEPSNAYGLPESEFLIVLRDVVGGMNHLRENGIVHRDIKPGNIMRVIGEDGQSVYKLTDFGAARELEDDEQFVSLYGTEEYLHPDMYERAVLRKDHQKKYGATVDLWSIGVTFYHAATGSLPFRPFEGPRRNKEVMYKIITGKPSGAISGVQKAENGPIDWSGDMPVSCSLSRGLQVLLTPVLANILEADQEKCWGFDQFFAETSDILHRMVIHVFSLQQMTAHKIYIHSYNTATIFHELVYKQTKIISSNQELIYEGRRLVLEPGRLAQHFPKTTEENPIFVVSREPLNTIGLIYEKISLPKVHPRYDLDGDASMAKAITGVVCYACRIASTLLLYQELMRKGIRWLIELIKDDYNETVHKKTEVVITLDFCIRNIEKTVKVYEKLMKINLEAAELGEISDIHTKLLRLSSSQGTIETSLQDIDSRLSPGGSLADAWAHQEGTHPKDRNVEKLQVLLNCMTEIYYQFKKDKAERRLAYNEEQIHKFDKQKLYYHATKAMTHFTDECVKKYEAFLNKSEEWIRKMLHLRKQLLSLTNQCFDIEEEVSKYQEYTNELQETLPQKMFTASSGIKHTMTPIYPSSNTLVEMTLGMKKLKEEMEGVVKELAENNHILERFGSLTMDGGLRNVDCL
Method in brief: (§1)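 Lead compounds and derivatives were profiled by ZLyte or Adapta in vitro kinase assays. Each value reports inhibition percentage at one of two concentrations, 1 µM or 10 µM.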

CAMK1 (CaMK1) = biological target: T2, CAMK1 (CaMK1) (Homo sapiens, UniProt Q14012)
T2 construct: purchased Thermo Fisher Scientific
Method in brief: as §1

SGK (SGK1) = biological target: T3, SGK (SGK1) (Homo sapiens, UniProt O00141)
T3 construct: purchased Thermo Fisher Scientific
T3 sequence (O00141 1-431): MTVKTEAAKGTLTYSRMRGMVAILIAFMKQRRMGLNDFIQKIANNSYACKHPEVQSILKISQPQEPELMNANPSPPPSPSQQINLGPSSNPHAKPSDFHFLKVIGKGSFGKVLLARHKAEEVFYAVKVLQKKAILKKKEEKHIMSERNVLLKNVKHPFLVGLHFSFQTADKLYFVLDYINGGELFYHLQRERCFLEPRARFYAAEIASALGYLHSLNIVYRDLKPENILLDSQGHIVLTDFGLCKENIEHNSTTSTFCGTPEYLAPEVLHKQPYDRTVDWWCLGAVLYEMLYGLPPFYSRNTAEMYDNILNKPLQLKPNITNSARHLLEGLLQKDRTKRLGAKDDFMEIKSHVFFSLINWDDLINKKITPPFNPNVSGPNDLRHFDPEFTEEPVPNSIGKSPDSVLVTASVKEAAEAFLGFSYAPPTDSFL
Method in brief: as §1

PRKCZ (PKC zeta) = biological target: T4, PRKCZ (PKC zeta) (Homo sapiens, UniProt Q05513)
T4 construct: purchased Thermo Fisher Scientific
T4 sequence (Q05513 1-592): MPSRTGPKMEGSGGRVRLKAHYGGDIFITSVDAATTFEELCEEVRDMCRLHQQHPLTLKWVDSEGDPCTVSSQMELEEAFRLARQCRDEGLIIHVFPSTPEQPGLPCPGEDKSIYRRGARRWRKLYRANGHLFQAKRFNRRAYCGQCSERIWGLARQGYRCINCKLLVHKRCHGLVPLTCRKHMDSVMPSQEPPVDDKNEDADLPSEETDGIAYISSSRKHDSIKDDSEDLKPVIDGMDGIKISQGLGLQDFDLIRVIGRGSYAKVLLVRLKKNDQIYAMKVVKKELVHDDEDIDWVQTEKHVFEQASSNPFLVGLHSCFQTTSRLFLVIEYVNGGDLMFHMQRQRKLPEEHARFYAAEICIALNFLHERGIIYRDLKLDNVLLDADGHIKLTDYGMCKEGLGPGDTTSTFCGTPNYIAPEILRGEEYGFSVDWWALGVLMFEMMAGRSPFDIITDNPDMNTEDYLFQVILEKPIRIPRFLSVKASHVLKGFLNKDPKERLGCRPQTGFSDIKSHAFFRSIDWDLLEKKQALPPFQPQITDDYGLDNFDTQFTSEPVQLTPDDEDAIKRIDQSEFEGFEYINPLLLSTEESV
Method in brief: as §1

HIPK1 (Myak) = biological target: T5, HIPK1 (Myak) (Homo sapiens, UniProt Q86Z02)
T5 construct: purchased Thermo Fisher Scientific
T5 sequence (Q86Z02 whole entry): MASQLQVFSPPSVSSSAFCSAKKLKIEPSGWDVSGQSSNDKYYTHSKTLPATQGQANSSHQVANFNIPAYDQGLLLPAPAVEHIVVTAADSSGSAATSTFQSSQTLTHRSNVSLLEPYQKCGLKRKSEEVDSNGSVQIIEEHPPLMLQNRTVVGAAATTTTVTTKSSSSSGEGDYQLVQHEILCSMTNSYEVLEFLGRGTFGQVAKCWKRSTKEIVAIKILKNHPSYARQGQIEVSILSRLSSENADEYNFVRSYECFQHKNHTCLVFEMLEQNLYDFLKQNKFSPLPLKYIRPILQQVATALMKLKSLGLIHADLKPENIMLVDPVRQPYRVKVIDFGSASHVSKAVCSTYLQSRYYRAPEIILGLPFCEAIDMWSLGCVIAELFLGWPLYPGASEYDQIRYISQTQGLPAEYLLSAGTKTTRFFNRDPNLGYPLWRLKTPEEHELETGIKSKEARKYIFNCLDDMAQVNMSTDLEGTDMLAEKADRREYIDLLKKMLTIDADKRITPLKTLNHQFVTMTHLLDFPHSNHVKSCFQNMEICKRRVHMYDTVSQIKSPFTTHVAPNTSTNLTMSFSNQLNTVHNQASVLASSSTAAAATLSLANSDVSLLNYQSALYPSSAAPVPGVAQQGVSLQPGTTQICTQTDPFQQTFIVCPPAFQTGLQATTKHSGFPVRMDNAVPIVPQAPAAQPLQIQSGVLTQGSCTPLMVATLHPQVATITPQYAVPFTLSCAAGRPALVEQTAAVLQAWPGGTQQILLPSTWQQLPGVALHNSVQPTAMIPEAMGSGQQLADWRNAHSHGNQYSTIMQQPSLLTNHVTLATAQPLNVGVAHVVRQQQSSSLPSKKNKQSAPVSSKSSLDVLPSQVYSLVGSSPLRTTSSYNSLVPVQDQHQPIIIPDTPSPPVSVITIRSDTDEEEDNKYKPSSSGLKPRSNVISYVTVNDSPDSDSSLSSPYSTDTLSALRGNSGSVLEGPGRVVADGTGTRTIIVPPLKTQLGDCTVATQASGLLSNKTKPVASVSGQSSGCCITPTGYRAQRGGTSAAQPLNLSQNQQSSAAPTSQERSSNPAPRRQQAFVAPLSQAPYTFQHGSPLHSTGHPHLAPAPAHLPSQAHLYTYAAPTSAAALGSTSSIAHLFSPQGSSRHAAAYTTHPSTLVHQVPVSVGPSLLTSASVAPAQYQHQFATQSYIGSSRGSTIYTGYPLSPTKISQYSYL
Method in brief: as §1

CDK2/cyclin A = biological target: T6, CDK2/cyclin A (Homo sapiens, UniProt P24941)
T6 construct: purchased Thermo Fisher Scientific
Method in brief: as §1

CSNK1G1 (CK1 gamma 1) = biological target: T7, CSNK1G1 (CK1 gamma 1) (Homo sapiens, UniProt Q9HCP0)
T7 construct: purchased Thermo Fisher Scientific
T7 sequence (Q9HCP0 whole entry): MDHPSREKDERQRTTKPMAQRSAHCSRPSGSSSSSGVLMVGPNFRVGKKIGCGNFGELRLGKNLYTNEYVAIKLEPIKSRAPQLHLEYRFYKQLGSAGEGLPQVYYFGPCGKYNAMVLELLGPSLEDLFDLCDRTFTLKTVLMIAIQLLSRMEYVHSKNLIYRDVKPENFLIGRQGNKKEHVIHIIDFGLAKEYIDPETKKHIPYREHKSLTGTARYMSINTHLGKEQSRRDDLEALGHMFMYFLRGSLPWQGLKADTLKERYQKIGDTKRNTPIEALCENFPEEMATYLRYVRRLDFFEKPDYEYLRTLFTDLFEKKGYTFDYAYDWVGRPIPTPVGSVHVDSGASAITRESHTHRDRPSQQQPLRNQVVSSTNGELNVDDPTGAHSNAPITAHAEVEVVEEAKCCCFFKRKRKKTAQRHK
Method in brief: as §1

Question: `COc1ccc2cc3c(N)nn(C(=O)c4cccc(N(C)C)c4)c3nc2c1` [MW05, (3-Amino-7-methoxypyrazolo[3,4-b]quinolin-1-yl)-[3-(dimethylamino)phenyl]methanone] was tested. Which inhibition at 1 µM (TBK1) did it give?
Answer: 11%

Question: What about the inhibition at 10 µM (TBK1) of the same compound?
Answer: -8%

Question: What about the inhibition at 1 µM (CAMK1 (CaMK1)) of the same compound?
Answer: -11%

Question: And the inhibition at 10 µM (CAMK1 (CaMK1))?
Answer: -5%

Question: And the inhibition at 1 µM (SGK (SGK1))?
Answer: -2%

Question: What about the inhibition at 10 µM (SGK (SGK1)) of the same compound?
Answer: -12%

Question: What about the inhibition at 1 µM (PRKCZ (PKC zeta)) of the same compound?
Answer: 16%

Question: And the inhibition at 10 µM (PRKCZ (PKC zeta))?
Answer: -4%

Question: What about the inhibition at 1 µM (HIPK1 (Myak)) of the same compound?
Answer: -4%

Question: And the inhibition at 10 µM (HIPK1 (Myak))?
Answer: -6%

Question: And the inhibition at 1 µM (CDK2/cyclin A)?
Answer: 12%

Question: And the inhibition at 10 µM (CDK2/cyclin A)?
Answer: 25%

Question: And the inhibition at 1 µM (CSNK1G1 (CK1 gamma 1))?
Answer: 3%

Question: And the inhibition at 10 µM (CSNK1G1 (CK1 gamma 1))?
Answer: 6%

Question: Which inhibition at 1 µM (TBK1) does the source give for `COc1ccc2c(c1OC)c(=O)n1c3ccc(O)cc3c3ccnc2c31` [MW01, 5-Hydroxy-10,11-dimethoxy-9H-benzo[c]indolo[3,2,1-ij][1,5]naphthyridin-9-one] here?
Answer: 8%

Question: And the inhibition at 10 µM (TBK1)?
Answer: 17%

Question: What about the inhibition at 1 µM (CAMK1 (CaMK1)) of the same compound?
Answer: -12%

Question: And the inhibition at 10 µM (CAMK1 (CaMK1))?
Answer: -2%

Question: And the inhibition at 1 µM (SGK (SGK1))?
Answer: -4%

Question: And the inhibition at 10 µM (SGK (SGK1))?
Answer: 15%

Question: What about the inhibition at 1 µM (PRKCZ (PKC zeta)) of the same compound?
Answer: 18%

Question: And the inhibition at 10 µM (PRKCZ (PKC zeta))?
Answer: 10%

Question: What about the inhibition at 1 µM (HIPK1 (Myak)) of the same compound?
Answer: 21%

Question: What about the inhibition at 10 µM (HIPK1 (Myak)) of the same compound?
Answer: 47%

Question: And the inhibition at 1 µM (CDK2/cyclin A)?
Answer: 14%

Question: And the inhibition at 10 µM (CDK2/cyclin A)?
Answer: 37%

Question: What about the inhibition at 1 µM (CSNK1G1 (CK1 gamma 1)) of the same compound?
Answer: 5%

Question: And the inhibition at 10 µM (CSNK1G1 (CK1 gamma 1))?
Answer: 12%
